Measured values as given in patent US20150246056A1, “METHODS FOR TREATING OR PREVENTING SYMPTOMS OF HORMONAL VARIATIONS” (priority 2006, published 2015).
Like-named read-outs stand apart in the source and are kept apart here.

Key:
[1] = system: hot flashes or other symptoms of hormonal variations
hot flashes = settings: cited from earlier work; for minimizing the occurrence and severity of hot flashes compared with placebo: randomized clinical trials (Loprinzi 2000; Stearns 2003)
D2 dopamine receptor = D2 dopamine receptor (Homo sapiens, UniProt P14416); settings: serial PET scans; cited from earlier work
D1 dopamine receptors = D1 dopamine receptors (Homo sapiens, UniProt P21728); settings: cited from earlier work
α1-adrenergic receptors = settings: cited from earlier work
α2-adrenergic receptors = settings: cited from earlier work
[2] = biological target: dopamine type 2 (D2) receptor (Homo sapiens, UniProt P14416); settings: cited from earlier work
[3] = Patient 2, risperidone 2 mg per day
[4] = Patient 3, risperidone 1 mg daily resumed

Sequence of D1 dopamine receptors (P21728 whole entry): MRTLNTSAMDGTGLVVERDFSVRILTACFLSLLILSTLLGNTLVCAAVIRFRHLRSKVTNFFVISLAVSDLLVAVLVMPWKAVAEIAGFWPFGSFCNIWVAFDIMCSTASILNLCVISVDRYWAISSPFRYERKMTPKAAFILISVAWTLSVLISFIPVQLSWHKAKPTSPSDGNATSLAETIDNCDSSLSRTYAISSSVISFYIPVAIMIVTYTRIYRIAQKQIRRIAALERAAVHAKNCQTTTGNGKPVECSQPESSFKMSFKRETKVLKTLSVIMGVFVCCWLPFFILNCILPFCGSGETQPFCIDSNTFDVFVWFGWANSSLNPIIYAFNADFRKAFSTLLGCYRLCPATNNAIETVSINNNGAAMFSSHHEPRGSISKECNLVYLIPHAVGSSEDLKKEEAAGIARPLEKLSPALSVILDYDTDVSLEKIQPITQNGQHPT
Sequence of dopamine type 2 (D2) receptor (P14416 whole entry): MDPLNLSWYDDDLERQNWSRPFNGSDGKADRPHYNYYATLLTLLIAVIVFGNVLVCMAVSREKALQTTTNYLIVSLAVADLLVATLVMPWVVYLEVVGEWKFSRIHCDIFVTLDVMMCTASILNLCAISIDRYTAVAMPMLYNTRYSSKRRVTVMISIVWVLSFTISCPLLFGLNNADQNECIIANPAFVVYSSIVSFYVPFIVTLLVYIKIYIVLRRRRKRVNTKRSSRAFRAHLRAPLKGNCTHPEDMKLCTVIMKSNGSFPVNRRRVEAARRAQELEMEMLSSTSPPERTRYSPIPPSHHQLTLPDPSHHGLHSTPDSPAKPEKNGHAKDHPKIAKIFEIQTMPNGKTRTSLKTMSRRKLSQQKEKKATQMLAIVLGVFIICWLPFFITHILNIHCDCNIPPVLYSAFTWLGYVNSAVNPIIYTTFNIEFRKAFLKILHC
Sequence of D2 dopamine receptor (P14416 whole entry): as above

Molecule: COC(=O)C1=C(C)NC(C)=C(C(=O)OC)C1c1ccccc1[N+](=O)[O-] [adalate]
- blood pressure after sublingual dose for sudden onsets of high blood pressure ([1]; human, in vivo): frequently dropped below critical level

Molecule: Clc1cccc(Cl)c1N=C1NCCN1 [clonidine]
- adverse effects (hot flashes; randomized clinical trials, including dry mouth, dizziness, and blurred vision): common
- efficacy against hot flashes compared with placebo (hot flashes; randomized clinical trials, tamoxifen-induced hot flashes (Goldberg 1994; Pandya 2000)): moderately more efficacious than placebo

Molecule: Fc1ccc([C@@H]2CCNC[C@H]2COc2ccc3c(c2)OCO3)cc1 [paroxetine]
- minimizing the occurrence and severity of hot flashes compared with placebo (hot flashes): more effective than placebo

Molecule: OCCOCCN1CCN(C2=Nc3ccccc3Sc3ccccc32)CC1 [quetiapine]
- dissociation from the D2 receptor (D2 dopamine receptor): rapidly disassociates

Molecule: Cc1nc2n(c(=O)c1CCN1CCC(c3noc4cc(F)ccc34)CC1)CCCC2 [risperidone]
- binding to D1 dopamine receptors (D1 dopamine receptors): does not bind
- associated symptoms, such as palpitation and anxiety ([1]; Patient 1, risperidone 2 mg/day): improved significantly
- time to reoccurrence of hot flashes after discontinuing the treatment ([1]; Patient 1, risperidone 2 mg/day discontinued): 2 to 3 days
- frequency of hot flashes ([1]; Patient 1, risperidone 2 mg/day, after three days of treatment): once per 1-2 weeks
- time to alleviation of symptoms after resuming treatment ([1]; Patient 1, risperidone resumed): 3 to 4 days
- hot flashes after treatment was resumed ([1]; Patient 2, risperidone 2 mg daily resumed): has not suffered another hot flash since
- blood pressure [1, 3]: stabilized
- sleep [1, 3]: slept well
- occurrence of hot flashes ([1]; Patient 2, risperidone 2 mg per day, by day 7): completely eliminated
- occurrence of hot flashes ([1]; Patient 2, risperidone 2 mg per day, two days after starting): reduced markedly
- time to return of hot flashes and night sweats after treatment was completely discontinued ([1]; Patient 2, risperidone tapered off over 2 days): two
- hot flashes after treatment was resumed [1, 4]: no longer experienced hot flashes
- quality of sleep and life [1, 4]: improved
- frequency and intensity of hot flashes ([1]; Patient 3, risperidone 1 mg per night, three days after starting, seven hot flashes per day before): markedly reduced
- hot flashes after dose reduction ([1]; Patient 3, three months later, risperidone 0.25 mg or less per day): still markedly eliminated
- residual hot flashes ([1]; Patient 4, risperidone 1 mg at bedtime for two days, then 2 mg per night, with hormone replacement therapy, three days after starting): completely eliminated
- blood pressure ([1]; Patient 4, risperidone 2 mg per night): stabilized within the normal range
- affinity for α1-adrenergic receptors (α1-adrenergic receptors): high affinity
- affinity for α2-adrenergic receptors (α2-adrenergic receptors): lower affinities
- affinity for D2 receptor [2]: high affinity

Molecule: COc1ccc(C(CN(C)C)C2(O)CCCCC2)cc1 (stereo not drawn) [venlafaxine]
- minimizing the occurrence and severity of hot flashes compared with placebo (hot flashes): more effective than placebo

Molecule: estrogen
- response of perimenopausal symptoms to earlier therapies ([1]; Patient 3, perimenopausal person): responded well
